Reference: US20230263822A1, “MODULATION OF FACTOR 11 EXPRESSION” (Ionis Pharmaceuticals, Inc., priority 2008, published 2023)
“And” between values parts separate entries of the source, which are not always exact repeats. Equal values may be shown once. Strand notation (5' to 3'): a small letter for the sugar, then the base; units joined by * are phosphorothioate-linked, units joined directly phosphodiester-linked; [ ] holds rarer units or linkages, { } end groups; capitals alone tell only the bases. e = 2'-O-(2-methoxyethyl) (MOE); [5mC] = 5-methylcytosine; d = 2'-deoxy (DNA)

Assays:
[1] = Viscosity of ISIS antisense oligonucleotides, micro-viscometer at 25 °C (Example 47); type: physicochemical; conditions: for Concentration: concentration of the viscosity sample, UV reading at 260 nM at 85° C.; for Viscosity: in water, micro-viscometer at 25° C., at the concentration of the same line
Method in brief: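 Oligonucleotide (32-35 mg) was dissolved in 120 μL water by heating at 50° C, and viscosity was measured by micro-viscometer at 25° C. Concentration was checked by UV at 260 nm at 85° C on a dilution in water. Screening cut-off: >40 cP at 165-185 mg/mL.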

[2] = Body and organ weights of cynomolgus monkeys (Example 46); type: in vivo; design: Liver weight / Spleen weight / Kidney weight: unit not given here; conditions: for Kidney weight / Liver weight / Spleen weight: day 55, after euthanasia
Method: (§1) Groups, each consisting of two male and two female monkeys, were injected subcutaneously with 25 mg/kg of ISIS 416850, ISIS 449709, ISIS 445522, ISIS 449710, ISIS 449707, ISIS 449711, ISIS 449708, 416858, and ISIS 445531. Antisense oligonucleotide was administered to the monkeys at 25 mg/kg three times per week for week 1 and 25 mg/kg twice per week for weeks 2 to 8. A control group, consisting of two male and two female monkeys was injected subcutaneously with PBS according to the same dosing regimen. Body weights were taken 14 days and 7 days before the start of treatment and were then measured weekly throughout the treatment period. Blood samples were collected 14 days and 5 days before the start of treatment and subsequently several times during the dosing regimen for PT and aPTT measurements, and measurement of various hematologic factors. On day 55, the monkeys were euthanized by exsanguination while under deep anesthesia, and organs harvested for further analysis.
Organ weights were taken after the animals were euthanized on day 55, and livers, kidneys and spleens were harvested.

[3] = tested on: blood coagulation; test: PT and aPTT assay in cynomolgus monkeys (Example 46); type: in vivo; conditions: for PT ratio (INR) / aPTT ratio relative to PBS group: platelet poor plasma, relative to PBS group; for aPTT: cynomolgus monkeys, 25 mg/kg
Method: as §1
PT and aPTT were measured using platelet poor plasma (PPP) from […] treated with ISIS oligonucleotides. PT and aPTT values are provided in Tables 148 and 149 and are reported as International Normalized Ratio (INR) values. INR values for PT and aPTT were determined by dividing the PT or aPTT value for each experimental group by the PT or aPTT for the PBS treated group. This ratio was then raised to the power of the International Sensitivity Index (ISI) of the tissue factor used. […] Therefore, antisense reduction of Factor 11 with these ISIS oligonucleotides is useful for inhibiting the formation of a thrombus or clot in response to an abnormal vessel wall, but not in response to tissue injury.

Substance	Concentration [1]	Viscosity [1]	body weight ([2]; day 1) [g]	body weight ([2]; day 8) [g]	body weight ([2]; day 15) [g]	body weight ([2]; day 22) [g]	body weight ([2]; day 29) [g]	body weight ([2]; day 36) [g]	body weight ([2]; day 43) [g]	body weight ([2]; day 50) [g]	Kidney weight [2]	Liver weight [2]	Spleen weight [2]	body weight ([2]; day −7) [g]	body weight ([2]; day −14) [g]	PT ratio (INR) ([3]; Day 10)	aPTT ratio relative to PBS group ([3]; Day 10)	PT ratio (INR) ([3]; Day 17)	aPTT ratio relative to PBS group ([3]; Day 17)	PT ratio (INR) ([3]; Day 24)	other results
445531 (antisense eG*eG*e[5mC]*eA*eT*dT*dG*dG*dT*dG*d[5mC]*dA*d[5mC]*eA*eG*eT*eT*eT) [compound 445531]	155 mg/mL and 179 mg/mL	15 cP and 20 cP																			
413482 (antisense GGACGGCATTGGTGCACAGT; 5-10-5 MOE gapmer, further chemistry not given here) [compound 413482]	172 mg/mL	16. cP																			
412223 (antisense ACAGTTTCTGGCAGGCCTCG; 5-10-5 MOE gapmer, further chemistry not given here) [compound 412223]	163 mg/mL	8 cP																			
416856 (antisense GGCATTGGTGCACAGTTTCT; 5-10-5 gapmer, further chemistry not given here) [compound 416856]	175 mg/mL	18 cP																			
445522 (antisense eG*e[5mC]*eA*e[5mC]*eA*dG*dT*dT*dT*d[5mC]*dT*dG*dG*e[5mC]*eA*eG*eG*e[5mC]) [compound 445522]	173 mg/mL and 174 mg/mL	63 cP and 58 cP																			
412224 (antisense GCATTGGTGCACAGTTTCTG; 5-10-5 MOE gapmer, further chemistry not given here) [compound 412224]	186 mg/mL	98 cP																			
ISIS 449707: 3-8-3, 4-8-4, 2-10-2, 3-10-3 or 4-10-4 MOE microwalk gapmer (Table 46) (antisense e[5mC]*eA*e[5mC]*eA*dG*dT*dT*dT*d[5mC]*dT*dG*dG*e[5mC]*eA*eG*eG)			2107	2088	2120	2142	2155	2158	2197	2185	0.53	2.5	0.24	2083	2072	0.95	0.92	0.97	0.94	0.95	aPTT ratio relative to PBS group ([3]; Day 24): 0.93; PT ratio (INR) ([3]; Day 31): 0.96; aPTT ratio relative to PBS group ([3]; Day 31): 0.95; PT ratio (INR) ([3]; Day 38): 1.00; aPTT ratio relative to PBS group ([3]; Day 38): 0.99; PT ratio (INR) ([3]; Day 45): 0.96; aPTT ratio relative to PBS group ([3]; Day 45): 1.00; PT ratio (INR) ([3]; Day 52): 0.96; aPTT ratio relative to PBS group ([3]; Day 52): 0.99; PT ratio (INR) ([3]; Day 55): 1.00; aPTT ratio relative to PBS group ([3]; Day 55): 1.04; PT ratio (INR) ([3]; Day −5): 0.94; aPTT ratio relative to PBS group ([3]; Day −5): 0.87; PT ratio (INR) ([3]; Day −14): 1.01; aPTT ratio relative to PBS group ([3]; Day −14): 0.90
ISIS 416850: MOE gapmer, nucleobases 1275 to 1318 of SEQ ID NO: 1 (Table 8) (antisense TGCACAGTTTCTGGCAGGCC; MOE gapmer, wing and gap sizes not given here)			2083	2072	2147	2139	2159	2136	2186	2143	0.51	2.5	0.17	2074	2061	0.99	0.98	1.00	1.01	0.97	aPTT ratio relative to PBS group ([3]; Day 24): 1.05; PT ratio (INR) ([3]; Day 31): 1.00; aPTT ratio relative to PBS group ([3]; Day 31): 1.22; PT ratio (INR) ([3]; Day 38): 1.01; aPTT ratio relative to PBS group ([3]; Day 38): 1.25; PT ratio (INR) ([3]; Day 45): 1.00; aPTT ratio relative to PBS group ([3]; Day 45): 1.34; PT ratio (INR) ([3]; Day 52): 1.02; aPTT ratio relative to PBS group ([3]; Day 52): 1.32; PT ratio (INR) ([3]; Day 55): 1.07; aPTT ratio relative to PBS group ([3]; Day 55): 1.45; PT ratio (INR) ([3]; Day −5): 1.00; aPTT ratio relative to PBS group ([3]; Day −5): 0.90; PT ratio (INR) ([3]; Day −14): 1.02; aPTT ratio relative to PBS group ([3]; Day −14): 0.99; aPTT [3]: significantly prolonged
412225 (antisense GCAGCGGACGGCATTGGTGC; 5-10-5 MOE gapmer, further chemistry not given here) [compound 412225]	162 mg/mL	>100 cP																			
ISIS 416858: MOE gapmer, nucleobases 1275 to 1318 of SEQ ID NO: 1 (Table 8) (antisense ACGGCATTGGTGCACAGTTT; MOE gapmer, wing and gap sizes not given here)			2115	2149	2162	2188	2196	2210	2238	2225	0.47	2.6	0.24	2092	2073	0.96	1.07	0.98	1.13	0.95	aPTT ratio relative to PBS group ([3]; Day 24): 1.21; PT ratio (INR) ([3]; Day 31): 1.00; aPTT ratio relative to PBS group ([3]; Day 31): 1.32; PT ratio (INR) ([3]; Day 38): 0.97; aPTT ratio relative to PBS group ([3]; Day 38): 1.41; PT ratio (INR) ([3]; Day 45): 1.00; aPTT ratio relative to PBS group ([3]; Day 45): 1.49; PT ratio (INR) ([3]; Day 52): 0.99; aPTT ratio relative to PBS group ([3]; Day 52): 1.53; PT ratio (INR) ([3]; Day 55): 1.01; aPTT ratio relative to PBS group ([3]; Day 55): 1.61; PT ratio (INR) ([3]; Day −5): 0.96; aPTT ratio relative to PBS group ([3]; Day −5): 0.96; PT ratio (INR) ([3]; Day −14): 1.01; aPTT ratio relative to PBS group ([3]; Day −14): 1.03; aPTT [3]: significantly prolonged
